Assays:
PTPN2 (i.e., TC-PTP) = biological target: T1, PTPN2 (i.e., TC-PTP) (Homo sapiens, UniProt P17706); assay: Phosphatase activity assay (DiFMUP substrate), PTPN2; format: biochemical; conditions: compounds binned ≤1 uM or >1 uM
T1 sequence (P17706 1-415): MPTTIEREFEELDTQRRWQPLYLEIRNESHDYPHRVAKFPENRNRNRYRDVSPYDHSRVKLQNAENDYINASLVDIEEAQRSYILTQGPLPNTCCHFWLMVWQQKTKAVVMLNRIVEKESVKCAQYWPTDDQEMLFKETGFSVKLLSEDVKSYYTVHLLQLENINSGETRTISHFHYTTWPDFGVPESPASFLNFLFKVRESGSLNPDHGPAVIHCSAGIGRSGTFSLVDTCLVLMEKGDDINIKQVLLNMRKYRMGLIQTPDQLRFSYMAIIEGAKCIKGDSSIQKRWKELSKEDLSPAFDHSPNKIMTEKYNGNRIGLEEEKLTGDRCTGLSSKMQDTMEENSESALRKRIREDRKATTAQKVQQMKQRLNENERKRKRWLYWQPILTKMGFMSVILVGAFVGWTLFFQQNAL
In short: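 Read-out is continuous fluorescence of DiFMU (360 nm excitation, 450 nm emission) over about 15-30 minutes, with DiFMUP substrate at the enzyme's independently determined Km (PTPN2 approx. 45 μM final). Buffer: 50 mM HEPES pH 7.5, 150 mM NaCl, 0.5 mM EDTA, 1 mM DTT, 0.001% Tween-20, room temperature; initial rates versus 10-point dilution fitted for IC50, at least duplicate.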

PTPN1 (i.e., PTP1B) = biological target: T2, PTPN1 (i.e., PTP1B) (Homo sapiens, UniProt P18031); assay: Phosphatase activity assay (DiFMUP substrate), PTP1B; format: biochemical; conditions: compounds binned ≤1 uM or >1 uM
T2 sequence (P18031 1-435): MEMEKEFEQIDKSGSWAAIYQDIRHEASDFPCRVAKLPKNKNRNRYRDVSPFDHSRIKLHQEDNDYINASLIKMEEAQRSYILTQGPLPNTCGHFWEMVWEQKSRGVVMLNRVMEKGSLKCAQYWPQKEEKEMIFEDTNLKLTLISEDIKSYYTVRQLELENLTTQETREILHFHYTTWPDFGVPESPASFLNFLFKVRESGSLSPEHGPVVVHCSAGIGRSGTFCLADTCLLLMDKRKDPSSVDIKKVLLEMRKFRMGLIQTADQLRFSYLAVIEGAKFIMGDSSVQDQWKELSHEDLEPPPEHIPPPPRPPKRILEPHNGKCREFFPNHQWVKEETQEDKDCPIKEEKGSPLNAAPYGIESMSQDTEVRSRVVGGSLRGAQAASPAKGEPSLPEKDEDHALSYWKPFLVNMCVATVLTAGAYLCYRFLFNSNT
In short: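 First, serially diluted inhibitor is mixed about 2 minutes with enzyme in pH 7.5 HEPES/NaCl/EDTA/DTT/Tween-20 buffer. Next, DiFMUP is added at the enzyme's Km, approximately 45 μM for PTPN2. Finally, DiFMU appearance is read continuously at room temperature and rates are fitted for IC50.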

| Compound | IC50 (PTPN2 (i.e., TC-PTP)) [nM] | IC50 (PTPN1 (i.e., PTP1B)) [nM] |
| --- | --- | --- |
| O=C1CN(c2c(O)ccc(-c3cc(-c4ccccc4)n[nH]3)c2F)S(=O)(=O)N1 [Compound 124, 5-(2-fluoro-6-hydroxy-3-(3-phenyl-1H-pyrazol-5-yl)phenyl)-1,2,5-thiadiazolidin-3-one 1,1-dioxide] | ≤ 1000 | ≤ 1000 |
| Cn1cc(-c2ccc(O)c(N3CC(=O)NS3(=O)=O)c2F)cn1 [Compound 227, 5-(2-fluoro-6-hydroxy-3-(1-methyl-1H-pyrazol-4-yl)phenyl)-1,2,5-thiadiazolidin-3-one 1,1-dioxide] | ≤ 1000 | ≤ 1000 |
| CC(C)Cn1cc(-c2ccc(O)c(N3CC(=O)NS3(=O)=O)c2F)cn1 [Compound 149, 5-(2-fluoro-6-hydroxy-3-(1-isobutyl-1H-pyrazol-4-yl)phenyl)-1,2,5-thiadiazolidin-3-one 1,1-dioxide] | ≤ 1000 | ≤ 1000 |
| O=C1CN(c2c(O)ccc(C3=CC(CC4CC4)NC3)c2F)S(=O)(=O)N1 (stereo not drawn) [Compound 522, 5-(3-(5-(cyclopropylmethyl)-2,5-dihydro-1H-pyrrol-3-yl)-2-fluoro-6-hydroxyphenyl)-1,2,5-thiadiazolidin-3-one 1,1-dioxide] | ≤ 1000 | ≤ 1000 |
| N#CNC(=N)N1CC=C(c2ccc(O)c(N3CC(=O)NS3(=O)=O)c2F)C1 [Compound 476, N-cyano-3-(3-(1,1-dioxido-4-oxo-1,2,5-thiadiazolidin-2-yl)-2-fluoro-4-hydroxyphenyl)-2,5-dihydro-1H-pyrrole-1-carboximidamide] | ≤ 1000 | ≤ 1000 |
| O=C1CN(c2c(O)ccc(-c3cnn(C4CCC4)c3)c2F)S(=O)(=O)N1 [Compound 194, 5-(3-(1-cyclobutyl-1H-pyrazol-4-yl)-2-fluoro-6-hydroxyphenyl)-1,2,5-thiadiazolidin-3-one 1,1-dioxide] | ≤ 1000 | ≤ 1000 |
| Cn1nc(-c2ccc(O)c(N3CC(=O)NS3(=O)=O)c2F)nc1C1CC1(F)F (stereo not drawn) [Compound 540, 5-(3-(5-(2,2-difluorocyclopropyl)-1-methyl-1H-1,2,4-triazol-3-yl)-2-fluoro-6-hydroxyphenyl)-1,2,5-thiadiazolidin-3-one 1,1-dioxide] | ≤ 1000 | ≤ 1000 |
| O=C1CN(c2c(O)ccc(-c3cc(CCC(F)(F)F)n[nH]3)c2F)S(=O)(=O)N1 [Compound 415, 5-(2-fluoro-6-hydroxy-3-(3-(3,3,3-trifluoropropyl)-1H-pyrazol-5-yl)phenyl)-1,2,5-thiadiazolidin-3-one 1,1-dioxide] | ≤ 1000 | ≤ 1000 |
| C[C@@H]1C=C(c2ccc(O)c(N3CC(=O)NS3(=O)=O)c2F)CN1 [Compound 483, (R)-5-(2-fluoro-6-hydroxy-3-(5-methyl-2,5-dihydro-1H-pyrrol-3-yl)phenyl)-1,2,5-thiadiazolidin-3-one 1,1-dioxide] | ≤ 1000 | ≤ 1000 |
| Cn1cc(-c2ccc(O)c(N3CC(=O)NS3(=O)=O)c2Cl)cn1 [Compound 311, 5-(2-chloro-6-hydroxy-3-(1-methyl-1H-pyrazol-4-yl)phenyl)-1,2,5-thiadiazolidin-3-one 1,1-dioxide] | ≤ 1000 | ≤ 1000 |
| O=C1CN(c2c(O)ccc(C3=CCOC3)c2F)S(=O)(=O)N1 [Compound 291, 5-(3-(2,5-dihydrofuran-3-yl)-2-fluoro-6-hydroxyphenyl)-1,2,5-thiadiazolidin-3-one 1,1-dioxide] | ≤ 1000 | ≤ 1000 |
| Cn1ccc(-c2ccc(O)c(N3CC(=O)NS3(=O)=O)c2F)c1 [Compound 185, 5-(2-fluoro-6-hydroxy-3-(1-methyl-1H-pyrrol-3-yl)phenyl)-1,2,5-thiadiazolidin-3-one 1,1-dioxide] | ≤ 1000 | ≤ 1000 |
| O=C1CN(c2c(O)ccc(-c3cc(O)cc4ccccc34)c2F)S(=O)(=O)N1 [Compound 218, 5-(2-fluoro-6-hydroxy-3-(3-hydroxynaphthalen-1-yl)phenyl)-1,2,5-thiadiazolidin-3-one 1,1-dioxide] | > 1000 | > 1000 |
| COc1ccc(Cn2cc(-c3ccc(O)c(N4CC(=O)NS4(=O)=O)c3F)cn2)cc1 [Compound 172, 5-(2-fluoro-6-hydroxy-3-(1-(4-methoxybenzyl)-1H-pyrazol-4-yl)phenyl)-1,2,5-thiadiazolidin-3-one 1,1-dioxide] | ≤ 1000 | ≤ 1000 |
| CS(=O)(=O)n1nc(-c2ccc(O)c(N3CC(=O)NS3(=O)=O)c2F)cc1C1CC1 [Compound 498, 5-(3-(5-cyclopropyl-1-(methylsulfonyl)-1H-pyrazol-3-yl)-2-fluoro-6-hydroxyphenyl)-1,2,5-thiadiazolidin-3-one 1,1-dioxide] | ≤ 1000 | ≤ 1000 |
| N#C[C@H]1CC[C@H](n2cc(-c3ccc(O)c(N4CC(=O)NS4(=O)=O)c3F)cn2)CC1 [Compound 305, (1r,4r)-4-(4-(3-(1,1-dioxido-4-oxo-1,2,5-thiadiazolidin-2-yl)-2-fluoro-4-hydroxyphenyl)-1H-pyrazol-1-yl)cyclohexane-1-carbonitrile] | ≤ 1000 | ≤ 1000 |
| NC1CCN(c2cc(-c3ccc(O)c(N4CC(=O)NS4(=O)=O)c3F)[nH]n2)C1 (stereo not drawn) [Compound 322, 5-(3-(3-(3-aminopyrrolidin-1-yl)-1H-pyrazol-5-yl)-2-fluoro-6-hydroxyphenyl)-1,2,5-thiadiazolidin-3-one 1,1-dioxide] | ≤ 1000 | ≤ 1000 |
| O=C1CN(c2c(O)ccc(-c3ccc(=O)n(Cc4ccccc4)c3)c2F)S(=O)(=O)N1 [Compound 220, 5-(3-(1-benzyl-6-oxo-1,6-dihydropyridin-3-yl)-2-fluoro-6-hydroxyphenyl)-1,2,5-thiadiazolidin-3-one 1,1-dioxide] | ≤ 1000 | ≤ 1000 |
| CC(C)n1cc(-c2ccc(O)c(N3CC(=O)NS3(=O)=O)c2F)cn1 [Compound 108, 5-(2-fluoro-6-hydroxy-3-(1-isopropyl-1H-pyrazol-4-yl)phenyl)-1,2,5-thiadiazolidin-3-one 1,1-dioxide] | ≤ 1000 | ≤ 1000 |
| COCC1C=C(c2ccc(O)c(N3CC(=O)NS3(=O)=O)c2F)CN1 (stereo not drawn) [Compound 481, 5-(2-fluoro-6-hydroxy-3-(5-(methoxymethyl)-2,5-dihydro-1H-pyrrol-3-yl)phenyl)-1,2,5-thiadiazolidin-3-one 1,1-dioxide] | ≤ 1000 | ≤ 1000 |
| N=C(N)N1CC=C(c2ccc(O)c(N3CC(=O)NS3(=O)=O)c2F)C1 [Compound 502, 3-(3-(1,1-dioxido-4-oxo-1,2,5-thiadiazolidin-2-yl)-2-fluoro-4-hydroxyphenyl)-2,5-dihydro-1H-pyrrole-1-carboximidamide] | ≤ 1000 | ≤ 1000 |
| O=C1CN(c2c(O)ccc(-c3cnn(CCC4CCOC4)c3)c2F)S(=O)(=O)N1 (stereo not drawn) [Compound 228, 5-(2-fluoro-6-hydroxy-3-(1-(2-(tetrahydrofuran-3-yl)ethyl)-1H-pyrazol-4-yl)phenyl)-1,2,5-thiadiazolidin-3-one 1,1-dioxide] | ≤ 1000 | ≤ 1000 |
| CC(C)CCn1ccc(-c2ccc(O)c(N3CC(=O)NS3(=O)=O)c2F)n1 [Compound 196, 5-(2-fluoro-6-hydroxy-3-(1-isopentyl-1H-pyrazol-3-yl)phenyl)-1,2,5-thiadiazolidin-3-one 1,1-dioxide] | ≤ 1000 | ≤ 1000 |
| O=C1CN(c2c(O)ccc(-c3cn(CC(F)F)nc3F)c2F)S(=O)(=O)N1 [Compound 488, 5-(3-(1-(2,2-difluoroethyl)-3-fluoro-1H-pyrazol-4-yl)-2-fluoro-6-hydroxyphenyl)-1,2,5-thiadiazolidin-3-one 1,1-dioxide] | ≤ 1000 | ≤ 1000 |
| O=C1CN(c2c(O)ccc(-c3cnn4ccccc34)c2F)S(=O)(=O)N1 [Compound 195, 5-(2-fluoro-6-hydroxy-3-(pyrazolo[1,5-a]pyridin-3-yl)phenyl)-1,2,5-thiadiazolidin-3-one 1,1-dioxide] | ≤ 1000 | ≤ 1000 |
| CCn1nc(-c2ccc(O)c(N3CC(=O)NS3(=O)=O)c2F)cc1C1CC1 [Compound 331, 5-(3-(5-cyclopropyl-1-ethyl-1H-pyrazol-3-yl)-2-fluoro-6-hydroxyphenyl)-1,2,5-thiadiazolidin-3-one 1,1-dioxide] | ≤ 1000 | ≤ 1000 |
| Cc1cc(-c2ccc(O)c(N3CC(=O)NS3(=O)=O)c2F)nn1C [Compound 454, 5-(3-(1,5-dimethyl-1H-pyrazol-3-yl)-2-fluoro-6-hydroxyphenyl)-1,2,5-thiadiazolidin-3-one 1,1-dioxide] | ≤ 1000 | ≤ 1000 |
